From patent US20030055046A1, “Novel pyrido cyclohexenyl phenyl carboxamides tocolytic oxytocin receptor antagonists” (Wyeth, priority 2001, published 2003)
Counter-ions that a name gives are not always drawn.

- melting point: 138 to 177 °C
Compound: COc1cc(C2=CCCCC2)c(Cl)cc1C(=O)N1Cc2ccc(C(=O)N(C)Cc3cccnc3)n2Cc2ccccc21 (as salt: tartaric acid salt) (hydrate or solvate) [Example 2, 10-(5-Chloro-4-cyclohex-1-en-1-yl-2-methoxybenzoyl)-N-methyl-N-(pyridin-3-ylmethyl)-10,11-dihydro-5H-pyrrolo[2,1-c][1,4]benzodiazepine-3-carboxamide L-(+)-tartaric acid salt hemihydrate]
